Patent US11396522B2, “Bis-acetal-based substrates for imaging exo-glycosidase activity” (ALECTOS THERAPEUTICS INC., priority 2017, dated 2022)
Entries after “also recorded” stand apart in the source; their conditions may differ.

How the values were obtained:
GBA1 [1] = molecular target: T1, GBA1 (Homo sapiens, UniProt P04062); assay: Live cell imaging of GBA1 activity in SK-N-SH cells; type: cell-based
T1 sequence (P04062 40-536): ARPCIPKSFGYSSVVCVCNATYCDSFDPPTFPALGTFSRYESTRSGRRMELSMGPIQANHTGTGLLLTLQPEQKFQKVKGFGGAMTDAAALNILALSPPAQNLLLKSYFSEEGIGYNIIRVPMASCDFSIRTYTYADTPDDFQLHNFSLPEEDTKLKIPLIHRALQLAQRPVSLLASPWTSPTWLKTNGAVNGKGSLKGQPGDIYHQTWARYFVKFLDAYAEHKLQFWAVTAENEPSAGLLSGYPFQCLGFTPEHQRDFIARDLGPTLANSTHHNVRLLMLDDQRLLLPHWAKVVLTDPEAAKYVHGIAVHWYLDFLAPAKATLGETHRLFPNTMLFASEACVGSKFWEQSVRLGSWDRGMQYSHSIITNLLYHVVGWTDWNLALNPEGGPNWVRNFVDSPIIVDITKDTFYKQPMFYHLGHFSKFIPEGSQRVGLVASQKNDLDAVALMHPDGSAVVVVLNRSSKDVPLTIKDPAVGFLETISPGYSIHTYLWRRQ
Method: SK-N-SH cells were cultured, except where indicated otherwise, in EMEM supplemented with 10% FBS and 1% penicillin-streptomycin at 37° C. and 5% CO2. The media was replaced every 3-4 days and the cells passaged after reaching 70-80% confluency, which occurred approximately every week. For imaging experiments, cells were seeded in triplicate into the central 60 wells of a sterile 96-well plate (Corning 4680) at a density of 10000 cells/well.
Fluorescence measurements in live cells was performed using a Molecular Devices ImageXpress XLS High-Content Imaging system (HCl). Live cells were plated in a 96-well or 384-well Corning plates. Cells were left to adhere and incubated at 37° C. in 5% CO2 for at least 12 h in EMEM supplemented with 10% FBS and 1% penicillin-streptomycin before any treatment. Cells were then washed with warm (37° C.) EMEM (with no phenol red and FBS). A mixture of vehicle, substrate dissolved in DMSO (0.1% final concentration of DMSO), or substrate and inhibitor mixture, were added to the imaging media (EMEM with no phenol red or FBS supplemented with DAPI) which was then added to these cells and incubated at 37° C. and 5% CO2 in the dark for the times specified (typically 2 h). […] For each well, 9 sites were imaged at predefined regions of each well and 2 to 3 channel were recorded (DAPI, FITC, TRITC). The data was analyzed using the MetaXpress software suite. by determining the Mean Integrated Intensity obtained using the TRITC channel and dividing by the number of cells (determined thanks to DAPI staining).
The Glc-H-BABS(TAMRA/BHQ2) 8 was also evaluated in the human neuronal cell culture model cells SK-N-SH. […] By integrating the fluorescence intensity from randomly selected fields, it was possible to observe a quantitative increase in fluorescence with increasing concentrations of the Glc-BABS 8. Next, it was established that there is a dose-dependent cellular fluorescence where a linear increase in fluorescence was observed that depended on the concentration of Glc-BABS 8 (FIG. 12). […]

GBA1 [2] = molecular target: T1, GBA1; assay: In vitro kinetic assay with GBA1; type: biochemical; design: purchased R&D Systems; settings: GBA enzymes at 50 nM
Method: For some experiments, fluorescence kinetic assays were performed using a Varian Cary Eclipse Spectrophotometer set for 335/493 nm excitation/emission wavelengths. Slits were set at 10 nm and the detector was set on Medium voltage. Enzymatic reactions with human OGA were carried out in PBS at 37° C. and were started by addition of hOGA (WT, Full-length, expressed in E. coli. as previously described) in a total volume of 160 μL (Starna sub-micro Fluorometer cuvette). For measurements of rates using different concentrations of substrates, a hOGA concentration of 100 nM was used. For hOGA titration, 25 μM of Glyco-BABS were added to various concentration of hOGA. […] EDANS standard curve was established using endpoint fluorescence measurements of serial dilutions of EDANS in the relevant buffer using the same instrument parameters. Inner-Filter effect measurements were carried out in cuvette by measuring fluorescence of several concentrations of EDANS in presence of various concentrations of GlcNAc-BABS. Kinetics with Glc-BABS and GBA enzymes (GBA1 and GBA3 purchased from R&D Systems), kinetics with GALC (R&D systems) and Gal-BABS, pH stability, quenching efficiency, some inner-filter effect experiments and lysates experiments were carried out using a Molecular Devices SpectraMax i3× plate reader. […]

[3] = pH stability of Glyco-BABS; type: physicochemical; settings: 5 μM, up to 72 h, pH 2 to 10
Excerpt: One concern with the Glyco-BABS design was the known lability of acetals under acidic conditions that has been exploited in pH-sensitive prodrugs or linkers for drug delivery.^41,42 However, we recognized that carbohydrate anomeric acetals are chemically distinct from regular acetals. Due to stabilization by the endocyclic oxygen, we expected these bis-acetals would show stability across a range of physiological pH values. We therefore assessed the stability of the bis-acetal motif toward acid and base hydrolysis (FIG. 8). To do so, we tested the pH stability of 5 μM of GlcNAc-Br-BABS 1, GlcNAc-OH-BABS 2, Glc-OH-BABS 6 and Glc-H-BABS 7 at different pH over time. We prepared solutions at various pH by mixing 0.2 M KCl+0.1 M HCl with 0.2 M KCl+0.1 M KOH. Fluorescence of EDANS and Glyco-BABS solutions (5 μM, 45 μL) at different pH was measured at different time points in Nunc 384-well plates using a SpectraMax i3× plate reader. Data (triplicates) support the highly efficient quenching and the stability of these substrates over a wide range of pH.

SMILES: O[C@H]1[C@H](O)CNC[C@@H]1C(F)F [AT3375, (3R,4R,5S)-5-(difluoromethyl)piperidine-3,4-diol]
- effect on fluorescent signal of Glc-BABS 8 in live SK-N-SH cells (GBA1 [1]; 10 μM AT3375 with 5 μM Glc-BABS 8): significant reduction; also recorded: clear decrease of the signal
- fluorescence signal vs inhibitor concentration in live SK-N-SH cells (GBA1 [1]; varying AT3375 concentrations, 5 μM Glc-BABS 8, 2 h): decreasing fluorescence signal with increasing inhibitor concentration

SMILES: CN(C)c1ccc(/N=N/c2ccc(C(=O)NCc3cn(CCOCCOC(CC(=O)NCCNc4cccc5c(S(=O)(=O)O)cccc45)O[C@@H]4O[C@H](CO)[C@@H](O)[C@H](O)[C@H]4O)nn3)cc2)cc1 (stereo partly drawn) [Compound 7, 5-((2-(3-(2-(2-(4-((4-((E)-(4-(dimethylamino)phenyl)diazenyl)benzamido)methyl)-1H-1,2,3-triazol-1-yl)ethoxy)ethoxy)-3-(((2S,3R,4S,5S,6R)-3,4,5-trihydroxy-6-(hydroxymethyl)tetrahydro-2H-pyran-2-yl)oxy)propanamido)ethyl)amino)naphthalene-1-sulfonic Acid]
- turnover by GBA1 (GBA1 [2]): turned over by GBA1 only
- pH stability (increase of fluorescence) [3]: no significant increase of fluorescence

SMILES: COc1cc(/N=N/c2ccc([N+](=O)[O-])cc2)c(OC)cc1/N=N/c1ccc(N(C)CCCC(=O)NCc2cn(CCOCCOC(CC(=O)NCCCCCCNC(=O)c3ccc(-c4c5ccc(=[N+](C)C)cc-5oc5cc(N(C)C)ccc45)c(C(=O)[O-])c3)O[C@@H]3O[C@H](CO)[C@@H](O)[C@H](O)[C@H]3O)nn2)cc1 (stereo partly drawn) [Compound 8, 5-((6-(3-(2-(2-(4-((4-((4-((E)-(2,5-dimethoxy-4-((E)-(4-nitrophenyl)diazenyl)phenyl)diazenyl)phenyl)(methyl)amino)butanamido)methyl)-1H-1,2,3-triazol-1-yl)ethoxy)ethoxy)-3-(((2S,3R,4S,5S,6R)-3,4,5-trihydroxy-6-(hydroxymethyl)tetrahydro-2H-pyran-2-yl)oxy)propanamido)hexyl)carbamoyl)-2-(6-(dimethylamino)-3-(dimethyliminio)-3H-xanthen-9-yl)benzoate]
- processing to fluorescent product in live SK-N-SH cells (GBA1 [1]; 5 μM and varying concentrations, 1 to 2 h): processed in cells to result in the fluorescent product
